Data on 2 compounds can be found in patent publication US20070004766A1, “Methods for relaxation of smooth muscle contractions using Trospium” (priority 2005, published 2007).

Assay [1] deals with T1, human recombinant muscarinic receptor M-3 (Homo sapiens, UniProt P20309).
T1 construct: expressed in transfected cells; host or cells: Sf9 insect cells (membranes)
The experiment in a line: biochemical. In kind it is binding.

Assay [2] concerns bladder smooth muscle strips. The experiment in a line: Antimuscarinic activity on bladder smooth muscle strips (carbachol-induced contractions). Type of assay: cell-based, guinea pigs. To be noted: Cavia porcellus, read-out: KB, inhibition of carbachol-induced contractions.

T1 sequence (P20309 whole entry): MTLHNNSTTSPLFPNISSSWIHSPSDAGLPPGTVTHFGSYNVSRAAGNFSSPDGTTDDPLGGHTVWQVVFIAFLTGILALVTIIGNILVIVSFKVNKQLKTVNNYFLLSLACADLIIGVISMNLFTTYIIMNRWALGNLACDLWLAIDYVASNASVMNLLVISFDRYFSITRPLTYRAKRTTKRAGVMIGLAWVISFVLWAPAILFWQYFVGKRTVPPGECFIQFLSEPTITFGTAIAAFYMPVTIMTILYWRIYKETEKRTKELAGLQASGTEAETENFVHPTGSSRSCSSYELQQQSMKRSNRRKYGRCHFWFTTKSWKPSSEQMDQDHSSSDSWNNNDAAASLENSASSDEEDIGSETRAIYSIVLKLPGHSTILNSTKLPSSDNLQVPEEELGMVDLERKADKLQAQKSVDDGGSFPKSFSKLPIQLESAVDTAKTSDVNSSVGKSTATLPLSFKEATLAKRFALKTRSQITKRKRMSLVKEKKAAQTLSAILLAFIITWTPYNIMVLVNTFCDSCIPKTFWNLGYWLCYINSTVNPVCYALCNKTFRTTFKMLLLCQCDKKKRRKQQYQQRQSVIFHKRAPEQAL

As for `O=C(OC1CC2CCC(C1)[N+]21CCCC1)C(O)(c1ccccc1)c1ccccc1` (stereo not drawn) [Trospium, 3α-hydroxy-spiro[1αH,5αH-nortropane-8,1′-pyrrolidinium]chloride benzilate], the inhibitory constant (Ki) in assay [1] was 0.501 nM. In assay [2], the Kb was in the range of 1.5 to 5.5 nM.

In the case of `Cc1ccc(O)c([C@H](CCN(C(C)C)C(C)C)c2ccccc2)c1` [Tolterodine], the Kb in assay [2] fell in the range of 1.5 to 5.5 nM.
